ChEMBL document CHEMBL1155820, “Lipid-conjugated oligonucleotides via "click chemistry" efficiently inhibit hepatitis C virus translation” (J Med Chem, 2008)
The source made the active and inactive calls. No cut-off for these calls is given here.

Tests used:
[1] = Cytotoxicity against human Huh7 cells at 0.1 to 2 uM; type: cell-based; settings: huh-7, 2 µM
Hepatitis C virus [2] = assay: Inhibition of hepatitis C virus internal ribosome entry site-mediated translation in human Huh7 cells at 1 uM preincubated for 4 hrs in presence of fetal calf serum by bicistronic luciferase reporter gene assay; type: functional, Hepacivirus hominis; settings: Huh-7
Hepatitis C virus [3] = assay: Inhibition of hepatitis C virus internal ribosome entry site-mediated translation in human Huh7 cells preincubated for 4 hrs in presence of fetal calf serum by bicistronic luciferase reporter gene assay; type: functional, organism-based; settings: Hepacivirus hominis; Huh-7
Hepatitis C virus [4] = assay: Inhibition of hepatitis C virus internal ribosome entry site-mediated translation in human Huh7 cells at 2 uM preincubated for 4 hrs in presence of fetal calf serum by bicistronic luciferase reporter gene assay; type: functional, Hepacivirus hominis; settings: Huh-7

For `CO[C@@H]1[C@H](OP(=O)(O)O)[C@@H](COP(=O)(O)O[C@H]2[C@@H](OC)[C@H](n3cnc4c(=O)[nH]c(N)nc43)O[C@@H]2COP(=O)(O)O[C@H]2[C@@H](OC)[C@H](n3cnc4c(=O)[nH]c(N)nc43)O[C@@H]2COP(=O)(O)O[C@H]2[C@@H](OC)[C@H](n3ccc(N)nc3=O)O[C@@H]2COP(=O)(O)O[C@H]2[C@@H](OC)[C@H](n3ccc(=O)[nH]c3=O)O[C@@H]2COP(=O)(O)O[C@H]2[C@@H](OC)[C@H](n3ccc(N)nc3=O)O[C@@H]2COP(=O)(O)O[C@H]2[C@@H](OC)[C@H](n3cnc4c(N)ncnc43)O[C@@H]2COP(=O)(O)O[C@H]2[C@@H](OC)[C@H](n3ccc(=O)[nH]c3=O)O[C@@H]2COP(=O)(O)O[C@H]2[C@@H](OC)[C@H](n3ccc(N)nc3=O)O[C@@H]2COP(=O)(O)O[C@H]2[C@@H](OC)[C@H](n3cnc4c(N)ncnc43)O[C@@H]2COP(=O)(O)O[C@H]2[C@@H](OC)[C@H](n3ccc(N)nc3=O)O[C@@H]2COP(=O)(O)O[C@H]2[C@@H](OC)[C@H](n3cnc4c(N)ncnc43)O[C@@H]2COP(=O)(O)OP(=O)(O)O[C@H]2[C@@H](OC)[C@H](n3cnc4c(N)ncnc43)O[C@@H]2COP(=O)(O)O[C@H]2[C@@H](OC)[C@H](n3ccc(N)nc3=O)O[C@@H]2COP(=O)(O)O[C@H]2[C@@H](OC)[C@H](n3ccc(N)nc3=O)O[C@@H]2COP(=O)(O)O[C@H]2[C@@H](OC)[C@H](n3ccc(N)nc3=O)O[C@@H]2COP(=O)(O)O[C@H]2[C@@H](OC)[C@H](n3cnc4c(N)ncnc43)O[C@@H]2COP(=O)(O)O[C@H]2C[C@H](n3cc(C)c(=O)[nH]c3=O)O[C@@H]2CN2C=C(CO[C@H]3CC[C@@]4(C)C(=CC[C@H]5[C@@H]6CC[C@H]([C@H](C)CCCC(C)C)[C@@]6(C)CC[C@@H]54)C3)NN2)O[C@H]1n1ccc(N)nc1=O`, the Activity [1] was “Non-toxic”, the inhibition at 1 µM (Hepatitis C virus [2]) was 50% and the Activity (Hepatitis C virus [3]) was “Dose-dependent effect”.
With `CCCCCCCCCCCCCCCCCCOCC1=CN(C[C@H]2O[C@@H](n3cc(C)c(=O)[nH]c3=O)C[C@@H]2OP(=O)(O)OC[C@H]2O[C@@H](n3cnc4c(N)ncnc43)[C@H](OC)[C@@H]2OP(=O)(O)OC[C@H]2O[C@@H](n3ccc(N)nc3=O)[C@H](OC)[C@@H]2OP(=O)(O)OC[C@H]2O[C@@H](n3ccc(N)nc3=O)[C@H](OC)[C@@H]2OP(=O)(O)OC[C@H]2O[C@@H](n3ccc(N)nc3=O)[C@H](OC)[C@@H]2OP(=O)(O)OC[C@H]2O[C@@H](n3cnc4c(N)ncnc43)[C@H](OC)[C@@H]2OP(=O)(O)OP(=O)(O)OC[C@H]2O[C@@H](n3cnc4c(N)ncnc43)[C@H](OC)[C@@H]2OP(=O)(O)OC[C@H]2O[C@@H](n3ccc(N)nc3=O)[C@H](OC)[C@@H]2OP(=O)(O)OC[C@H]2O[C@@H](n3cnc4c(N)ncnc43)[C@H](OC)[C@@H]2OP(=O)(O)OC[C@H]2O[C@@H](n3ccc(N)nc3=O)[C@H](OC)[C@@H]2OP(=O)(O)OC[C@H]2O[C@@H](n3ccc(=O)[nH]c3=O)[C@H](OC)[C@@H]2OP(=O)(O)OC[C@H]2O[C@@H](n3cnc4c(N)ncnc43)[C@H](OC)[C@@H]2OP(=O)(O)OC[C@H]2O[C@@H](n3ccc(N)nc3=O)[C@H](OC)[C@@H]2OP(=O)(O)OC[C@H]2O[C@@H](n3ccc(=O)[nH]c3=O)[C@H](OC)[C@@H]2OP(=O)(O)OC[C@H]2O[C@@H](n3ccc(N)nc3=O)[C@H](OC)[C@@H]2OP(=O)(O)OC[C@H]2O[C@@H](n3cnc4c(=O)[nH]c(N)nc43)[C@H](OC)[C@@H]2OP(=O)(O)OC[C@H]2O[C@@H](n3cnc4c(=O)[nH]c(N)nc43)[C@H](OC)[C@@H]2OP(=O)(O)OC[C@H]2O[C@@H](n3ccc(N)nc3=O)[C@H](OC)[C@@H]2OP(=O)(O)O)NN1` the Activity [1] was “Non-toxic”, the inhibition at 2 µM (Hepatitis C virus [4]) was 50% and the Activity (Hepatitis C virus [3]) was “Dose-dependent effect”.
For `CO[C@@H]1[C@H](OP(=O)(O)O)[C@@H](COP(=O)(O)O[C@H]2[C@@H](OC)[C@H](n3cnc4c(=O)[nH]c(N)nc43)O[C@@H]2COP(=O)(O)O[C@H]2[C@@H](OC)[C@H](n3cnc4c(=O)[nH]c(N)nc43)O[C@@H]2COP(=O)(O)O[C@H]2[C@@H](OC)[C@H](n3ccc(N)nc3=O)O[C@@H]2COP(=O)(O)O[C@H]2[C@@H](OC)[C@H](n3ccc(=O)[nH]c3=O)O[C@@H]2COP(=O)(O)O[C@H]2[C@@H](OC)[C@H](n3ccc(N)nc3=O)O[C@@H]2COP(=O)(O)O[C@H]2[C@@H](OC)[C@H](n3cnc4c(N)ncnc43)O[C@@H]2COP(=O)(O)O[C@H]2[C@@H](OC)[C@H](n3ccc(=O)[nH]c3=O)O[C@@H]2COP(=O)(O)O[C@H]2[C@@H](OC)[C@H](n3ccc(N)nc3=O)O[C@@H]2COP(=O)(O)O[C@H]2[C@@H](OC)[C@H](n3cnc4c(N)ncnc43)O[C@@H]2COP(=O)(O)O[C@H]2[C@@H](OC)[C@H](n3ccc(N)nc3=O)O[C@@H]2COP(=O)(O)O[C@H]2[C@@H](OC)[C@H](n3cnc4c(N)ncnc43)O[C@@H]2COP(=O)(O)OP(=O)(O)O[C@H]2[C@@H](OC)[C@H](n3cnc4c(N)ncnc43)O[C@@H]2COP(=O)(O)O[C@H]2[C@@H](OC)[C@H](n3ccc(N)nc3=O)O[C@@H]2COP(=O)(O)O[C@H]2[C@@H](OC)[C@H](n3ccc(N)nc3=O)O[C@@H]2COP(=O)(O)O[C@H]2[C@@H](OC)[C@H](n3ccc(N)nc3=O)O[C@@H]2COP(=O)(O)O[C@H]2[C@@H](OC)[C@H](n3cnc4c(N)ncnc43)O[C@@H]2COP(=O)(O)O)O[C@H]1n1ccc(N)nc1=O`, the Activity (Hepatitis C virus [3]) was “inactive”.
